Key:
[1] = tested on: Capan-2 cell homogenate; test: Prodrug hydrolysis in Capan-2 cell homogenate with the presence and the absence of selective enzyme inhibitors; format: in vitro ADME; settings: for Half Life, DPP 3 Inhibitor: Capan-2 cell homogenate with 1,10-phenanthroline; for Half Life, DPP 3 Inhibitor / Half Life, TPP 2 Inhibitor / Half Life, Cathepsin D Inhibitor / Half Life, Aminopeptidase Inhibitor / Half Life, Capan-2 Cell Homogenate: 37 °C; for Half Life, DPP 3 Inhibitor / Half Life, TPP 2 Inhibitor / Half Life, Cathepsin D Inhibitor / Half Life, Aminopeptidase Inhibitor: pH 7.4; for Half Life, TPP 2 Inhibitor: Capan-2 cell homogenate with H-Ala-Ala-Phe-CMK CF3CO2H; for Half Life, Cathepsin D Inhibitor: Capan-2 cell homogenate with pepstatin A; for Half Life, Aminopeptidase Inhibitor: Capan-2 cell homogenate with puromycin; for Half Life, Capan-2 Cell Homogenate: no inhibitor, pH 7.4 phosphate buffer, 200 µM substrate, mean ± s.d.
Method: Hydrolysis StudiesPreparation of Capan-2 cell homogenates. Preparation of cell homogenates has been reported previously. Confluent Capan-2 cells (2 plates; 150 mm × 25 mm plate) were rinsed with saline twice. The cells were washed off with 5 mL of pH 7.4 phosphate buffer (10 mmol/L) and the lysed cells by ultrasonication (Micro ultrasonic cell disrupter Model KT40, Kontes, Vineland, NJ, USA) were spun down by centrifugation.
(§1) Preparation of Cytosolic Enzyme Extract. Confluent Caco-2 cells and Capan-2 cells (2 plates; 150 mm × 25 mm plate) were rinsed with saline twice. The cells were washed off with 1 mL of pH 7.4 phosphate buffer (10 mmol/L) and the enzymes were extracted through 30 gauge needle 10 times in ice-cold bath. Cell suspension was spun at 10,000 × g for 2 h at 4 °C and the supernatant was spun at 39,000 × g for 2 h at 4 °C. Protein amount was quantified with the Bio-Rad (Hercules, CA, USA) DC Protein Assay using bovine serum albumin as a standard. The protein amount was adjusted to 500 µg/mL and the hydrolysis reactions were carried out in 96-well plates (Corning). Caco-2 cells and Capan-2 cell suspensions (250 µL) were placed in triplicate wells either presence or absence of various inhibitors, the reactions were started with the addition of substrate (200 µM), and wells were incubated at 37 °C for 120 min (time points; 0, 5, 10, 30, 60, and 120 min). At each time point, aliquot sample (35 µL) was removed and added to 150 µL of acetonitrile (ACN) with 0.1% TFA to prevent the further degradation. The mixtures were filtered with a 0.45 µm filters at 1,000 × g for 10 min at 4 °C. The filtrate wasthen analyzed via reverse-phaseHPLC.
(§2) The initial rates of hydrolysis were used to obtain the apparent first-order rate constants and estimate the half-lives. The apparent first-order degradation rate constants of various floxuridine prodrugs at 37 °C were determined by plotting the logarithm of prodrug remaining as a function of time. The slopes of these plots are related to the rate constant, k, and given by:
k = 2.303 × slope (log C vs. time) (1)
The degradation half-lives were then estimated by the equation: […]
(§3) The concentrations of prodrugs and their metabolites were determined on a Waters HPLC system (Waters, Inc., Milford, MA, USA). The HPLC system consisted of two Waters pumps (model 515), a Waters autosampler (WISP model 712), and a Waters UV detector (996 photodiode array detector). The system was controlled by Waters Millennium 32 software (version 3.0.1). Samples were injected onto a Waters Xterra C18 reverse-phase column (5 µm, 4.6 × 250 mm) equipped with a guard column. The compounds were eluted using gradient method. All prodrugs were run with the solvent B gradient changing 0% to 56% at a rate of 2%/min during a 28-min run. Standard curves generated for each prodrug and their parent drugs were used for quantitation of integrated area under peaks.

[2] = tested on: Capan-2 cell homogenates and cytosolic enzyme extracts; test: Prodrug stability in cytosolic enzyme extract versus whole cell homogenate of Capan-2 cells; format: in vitro ADME
Method: In stability studies of test compounds in cell homogenates, the location of enzymes in living cells is not considered and the inaccessible enzymes in vivo condition may be able to degrade those analytes in this in vitro setting. Therefore, the result of prodrug stabilities in cell homogenate may be different to one in vivo, where all enzymes are arranged in all specific locations. The experiments of prodrug activation concerning the location of enzymes in cells were performed at 37 °C in Capan-2 cell homogenates and in cytosolic enzyme extracts. For the comparison purpose, the same experiments were performed at 37 °C in Caco-2 cell homogenates and in cytosolic enzyme extracts. […] The difference between them was minimal (1.4- to 2.5 fold). […] In Capan-2 cells, the stabilities of 5′-O-L-phenylalanyl-L-glycylfloxuridine and 5′-O-L-phenylalanylfloxuridine were improved 7.4- and 7.3-fold, while the ones of 5′-O-L- phenylalanyl-L-tyrosylfloxuridine and 5′-O-L-glycyl-L-leucylfloxuridine were declined 3.9- and 6.0-fold, respectively.
as §1, §2, §3

[3] = tested on: Capan-2 cell lines; test: Cell proliferation (XTT) assay; format: cell-based; settings: 4 mmol/L, 4 h drug treatment
Method: The percentage of growth inhibition for amino acid/dipeptide monoester prodrugs of floxuridine in Capan-2 cell was evaluated via 2,3-bis[2-methoxy-4-nitro-5-sulfophenyl]-2H-tetrazolium-5-carboxanilideinner salt (XTT) assays (Figure 3). The growth inhibitory effect of tested floxuridine prodrugs after 4 h drug treatment range from 0.0–91.1% at 4 h, 0.0–84.2% at 8 h, and 41.8–84.8% at 24 h in Capan-2 cell lines. […] While specific activation enzymes for 5′-O-L-leucyl-L-glycylfloxuridine and 5′-O-L-phenylalanylfloxuridine have not been identified, those enzymes may be highly localized at the plasma membrane and cytosol. Thus, the activation of those prodrugs took place immediately after translocation of prodrugs into the cells and started inhibiting tumor growth. Leucine and phenylalanine are reportedly good substrates for aminopeptidases and carboxylesterase, respectively.
Cell proliferation studies were conducted with Capan-2 cell lines. The cells were seeded into 96-well plates at […] per well and allowed to attach/grow for 24 h before drug solutions were added. The culture medium (RPMI-1640 + 10% fetal bovine serum) was removed and the cells were gently washed once with sterile pH 6.0 uptake buffer (145 mM NaCl, 0.5 mM MgCl2, 1 mM NaH2PO4, 1 mM CaCl2, 3 mM KCl, 5 mM glucose, and 5 mM MES). Floxuridine prodrugs and floxuridine were diluted in pH 6.0 uptake buffer to 4 mmol/L using no drug as a 100% viability control. The wash buffer was removed and 25 µL drug solution per well were added and incubated at 37 °C for 4 h in the cell incubator. After this time, the drug solutions were removed and the cells were again gently washed twice with sterile uptake buffer. RPMI-1640 was then added to each well after washing. The cells were allowed to recover for 4 h, 8 h, or 24 h before evaluating cell viability via 2,3-bis[2-methoxy-4-nitro-5-sulfophenyl]-2H-tetrazolium-5-carboxanilide inner salt (XTT) assays. […] Absorbance readings at 450 nm were recorded.

[4] = set-up: method as in PMID 18719516; settings: pH 7.4 phosphate buffer; mean ± s.d.; ref [50]; cited from earlier work
[5] = molecular target: T1, human cathepsin B (Homo sapiens, UniProt P07858); test: Prodrug stability with human cathepsin B; format: biochemical; settings: pH 7.4 phosphate buffer, 37 °C, 200 µM substrate
T1 construct: cathepsin B (human liver), and cathepsin D (human liver) were obtained from Sigma Chemical Co; purchased Sigma Chemical Co (St. Louis, MO, USA); host or cells: human liver (tissue-derived)
Text: (§4) The high expression levels of cathepsins in tumors have been reported. It has been investigated if the protein levels of cathepsin B and D would associate with pathological parameters in order to assess the difference in protein levels of cathepsins as possible tumor biomarkers. Cathepsin B, one of the highest gene expressions in enzymes of Capan-2 cell, is a cysteine endopeptidase and reportedly has similar activity to carboxypeptidase and peptidyl-dipeptidase. On the other hand, cathepsin D has been reported that it preferentially hydrolyzes the peptide bond of bulky hydrophobic amino acids and the peptide bond between Phe-Phe of Bz-Arg-Gly-Phe-Phe-Pro-4MbNA [75, 76, 77]. The metabolic stability of floxuridine prodrugs was assessed using human cathepsin B and D in pH 7.4 phosphate buffer. […] However, the enzyme specificity between cathepsin B and D in prodrug activation for those two prodrugs was not observed.
(§5) Prodrug stability with Cathepsin B and D. Lyophilized enzyme powder was dissolved and adjusted to 2.5 mg/mL of pure enzyme, human cathepsin B and D. The hydrolysis reactions were immediately started by adding substrates (200 µM) in 96-well plates (Corning). The reactions were carried out at 37 °C for 120 min (time points; 0, 5, 10, 30, 60, and 120 min). At each time point, aliquot sample (35 µL) was removed and added to 150 µL of acetonitrile (ACN) with 0.1% TFA. The mixtures were filtered with a 0.45 µm filters at 1,000 × g for 10 min at 4 °C. The filtrate was then analyzed via reverse-phase HPLC.
as §2, with “The slopes of these plots are related to the rate constant, k, and given by:” left out
(§6) The concentrations of prodrugs and their metabolites were determined on a Waters HPLC system (Waters, Inc., Milford, MA, USA). […] Standard curves generated for each prodrug and their parent drugs were used for quantitation of integrated area under peaks.

[6] = molecular target: T2, human cathepsin D (Homo sapiens, UniProt P07339); test: Prodrug stability with human cathepsin D; format: biochemical; settings: pH 7.4 phosphate buffer, 37 °C, 200 µM substrate
T2 construct: cathepsin B (human liver), and cathepsin D (human liver) were obtained from Sigma Chemical Co; purchased Sigma Chemical Co (St. Louis, MO, USA); host or cells: human liver (tissue-derived)
T2 sequence (P07339 169-412 limits assumed): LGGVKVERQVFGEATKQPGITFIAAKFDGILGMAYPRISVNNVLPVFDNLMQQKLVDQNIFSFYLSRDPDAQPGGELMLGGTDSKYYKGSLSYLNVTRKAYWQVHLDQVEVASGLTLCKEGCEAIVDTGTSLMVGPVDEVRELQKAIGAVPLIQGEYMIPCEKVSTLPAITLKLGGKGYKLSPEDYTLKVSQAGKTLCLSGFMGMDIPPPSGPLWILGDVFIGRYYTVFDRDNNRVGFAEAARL
T2 sequence (P07339 65-162 limits assumed): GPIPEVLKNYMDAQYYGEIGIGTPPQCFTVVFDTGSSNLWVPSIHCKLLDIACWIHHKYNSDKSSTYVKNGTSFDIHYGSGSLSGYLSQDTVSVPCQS
Text: as §4, §5
as §2, with “The slopes of these plots are related to the rate constant, k, and given by:” left out
as §6

Row | Half Life, DPP 3 Inhibitor [1] [min] | Half Life, TPP 2 Inhibitor [1] [min] | Half Life, Cathepsin D Inhibitor [1] [min] | Half Life, Aminopeptidase Inhibitor [1] [min] | Half Life, Capan-2 Cell Homogenate [1] [min] | Change of half life with the presence of pepstatin A ([1]; Capan-2 cell homogenate) | Change of half lives with other enzyme inhibitors (not pepstatin A) ([1]; Capan-2 cell homogenate) | Stability (degradation) against cathepsin B compared with absence of enzyme [5] | Stability (degradation) against cathepsin D compared with absence of enzyme [6] | Fold decline of stability in cytosolic extract versus Capan-2 cell homogenate ([2]; 37 °C, pH 7.4 phosphate buffer) [fold] | SMILES | Change of stability in all conditions (with and without enzyme inhibitors) ([1]; Capan-2 cell homogenate) | Hydrolysis products observed ([1]; Capan-2 cell homogenate) | Hydrolysis products detected in cell homogenates and cytosolic enzyme extracts [2] | Fold longer half life (stability improved) in cytosolic extract than in Capan-2 cell homogenate ([2]; 37 °C, pH 7.4 phosphate buffer) [fold] | Onset of growth inhibition of tumor cells [3] | Half Life, Phosphate Buffer pH 7.4 [4] [min]
1 | 32.2 ± 9.3 | 5.6 ± 0.6 | 7.9 ± 0.7 | 14.0 ± 4.3 | 3.9 ± 1.1 |  |  |  |  |  | CC(C)C[C@H](N)C(=O)NCC(=O)OC[C@H]1O[C@@H](n2cc(F)c(=O)[nH]c2=O)C[C@@H]1O [5'-O-L-leucyl-L-glycylfloxuridine] |  |  | only floxuridine was detected |  | immediately inhibited the growth of tumor cells | 23.1 ± 4.1
2 | 47.2 ± 3.6 | 42.2 ± 1.3 | 105.7 ± 12.8 | 54.7 ± 2.8 | 42.8 ± 0.0 | significantly prolonged | not improved | significant degradation | significant degradation | 3.9 | N[C@@H](Cc1ccccc1)C(=O)N[C@@H](Cc1ccc(O)cc1)C(=O)OC[C@H]1O[C@@H](n2cc(F)c(=O)[nH]c2=O)C[C@@H]1O [5'-O-L-phenylalanyl-L-tyrosyl-floxuridine] |  | Amino acid monoester prodrugs of floxuridine and their parent drug were observed | Floxuridine and amino acid mono ester prodrugs of floxuridine were observed |  |  | 233.9 ± 6.6
3 | 67.7 ± 15.1 | 46.1 ± 1.9 | 76.4 ± 6.1 | 93.6 ± 29.3 | 56.2 ± 12.8 |  |  | not a good substrate for cathepsins | not a good substrate for cathepsins |  | CC(C)[C@H](N)C(=O)N[C@@H](Cc1ccccc1)C(=O)OC[C@H]1O[C@@H](n2cc(F)c(=O)[nH]c2=O)C[C@@H]1O [5'-O-L-valyl-L-phenylalanyl-floxuridine] |  | Amino acid monoester prodrugs of floxuridine and their parent drug were observed | Floxuridine and amino acid mono ester prodrugs of floxuridine were observed |  |  | 104.7 ± 7.0

Second part, the compound before the results:

Row | SMILES | Half Life, DPP 3 Inhibitor [1] [min] | Half Life, TPP 2 Inhibitor [1] [min] | Half Life, Cathepsin D Inhibitor [1] [min] | Half Life, Aminopeptidase Inhibitor [1] [min] | Half Life, Capan-2 Cell Homogenate [1] [min] | Change of half life with the presence of pepstatin A ([1]; Capan-2 cell homogenate) | Change of half lives with other enzyme inhibitors (not pepstatin A) ([1]; Capan-2 cell homogenate) | Stability (degradation) against cathepsin B compared with absence of enzyme [5] | Stability (degradation) against cathepsin D compared with absence of enzyme [6] | Fold decline of stability in cytosolic extract versus Capan-2 cell homogenate ([2]; 37 °C, pH 7.4 phosphate buffer) [fold] | Change of stability in all conditions (with and without enzyme inhibitors) ([1]; Capan-2 cell homogenate) | Hydrolysis products observed ([1]; Capan-2 cell homogenate) | Hydrolysis products detected in cell homogenates and cytosolic enzyme extracts [2] | Fold longer half life (stability improved) in cytosolic extract than in Capan-2 cell homogenate ([2]; 37 °C, pH 7.4 phosphate buffer) [fold] | Onset of growth inhibition of tumor cells [3] | Half Life, Phosphate Buffer pH 7.4 [4] [min]
4 | CC(C)C[C@H](NC(=O)CN)C(=O)OC[C@H]1O[C@@H](n2cc(F)c(=O)[nH]c2=O)C[C@@H]1O [5'-O-L-glycyl-L-leucylfloxuridine] |  |  |  |  |  |  |  |  |  |  | no change in its stability in all conditions | Amino acid monoester prodrugs of floxuridine and their parent drug were observed | Floxuridine and amino acid mono ester prodrugs of floxuridine were observed |  |  | 
5 | N[C@@H](Cc1ccccc1)C(=O)OC[C@H]1O[C@@H](n2cc(F)c(=O)[nH]c2=O)C[C@@H]1O [5'-O-L-phenylalanylfloxuridine] | 28.9 ± 10.7 | 15.3 ± 0.6 | 60.6 ± 4.6 | 48.7 ± 0.37 | 3.0 ± 0.1 |  |  |  |  |  |  |  | only floxuridine was detected | 7.3 | immediately inhibited the growth of tumor cells | 187.0 ± 19.0
6 | CC[C@H](C)[C@H](N)C(=O)NCC(=O)OC[C@H]1O[C@@H](n2cc(F)c(=O)[nH]c2=O)C[C@@H]1O [5′-O-L-isoleucyl-L-glycylfloxuridine] |  |  |  |  |  |  |  |  |  |  |  |  | only floxuridine was detected |  |  | 

— article PMC3565751, “The Feasibility of Enzyme Targeted Activation for Amino Acid/Dipeptide Monoester Prodrugs of Floxuridine; Cathepsin D as a Potential Targeted Enzym” (Molecules, 2012)
